The record followed here is patent US20170150719A1, “FUNGICIDAL PYRAZOLES AND THEIR MIXTURES” (E I DU PONT DE NEMOURS AND COMPANY, priority 2010, published 2017).

The subject of one test is Phytophthora infestans. The experiment in a line: whole plant or invertebrate. The note with it: for Test C rating (disease control) / Test C rating (% disease control): tomato late blight, 100 = 100% disease control; for Test C rating (disease control): 0 = no disease control relative to the controls; for pest or weed control at 200 µg/mL: Phytophthora infestans, in Solanum lycopersicum, read-out: Test C rating (disease control); for Test C rating (% disease control): preventive spray, rating without asterisk. It counts as in vivo.

The next test has as its system Septoria tritici. The experiment in a line: Test F: wheat leaf blotch, preventive spray on wheat seedlings, visual disease rating. The format is in vivo. To be noted: 100 = 100% disease control; for Test F rating (disease control) / pest or weed control at 200 µg/mL: 0 = no disease control relative to the controls; for pest or weed control at 200 µg/mL: Zymoseptoria tritici; for Test F rating (% disease control): preventive spray, rating without asterisk. An excerpt: (§1) A hyphen (-) indicates no test results.

Test [1] deals with Puccinia recondita f. sp. tritici. The experiment in a line: Test G: wheat leaf rust, spray after inoculation (curative) on wheat seedlings, visual disease rating. The format is in vivo. To be noted: 100 = 100% disease control; for Test G rating (disease control) / pest or weed control at 200 µg/mL: sprayed after inoculation, 0 = no disease control; for Test G rating (% disease control): spray after inoculation, rating without asterisk.
Text: as §1

Test [2] shares this test system. The test can be described thus: Test H: wheat leaf rust, preventive spray on wheat seedlings, visual disease rating. To be noted: 100 = 100% disease control; for Test H rating (disease control) / Test H rating (% disease control): wheat leaf rust; for Test H rating (disease control): sprayed the day before inoculation; for Test H rating (disease control) / pest or weed control at 200 µg/mL: 0 = no disease control; for pest or weed control at 200 µg/mL: read-out: Test H rating (disease control), wheat leaf rust, sprayed the day before inoculation; for Test H rating (% disease control): preventive spray, rating without asterisk.

Another test deals with Botrytis cinerea. The test can be described thus: Test A: tomato Botrytis, preventive spray on tomato seedlings, visual disease rating. The note with it: 100 = 100% disease control; for Test A rating (disease control) / Test A rating (% disease control): tomato Botrytis; for Test A rating (disease control) / pest or weed control at 200 µg/mL: 0 = no disease control relative to the controls; for pest or weed control at 200 µg/mL: Botrytis cinerea, in Solanum lycopersicum, read-out: Test A rating (disease control), tomato Botrytis; for Test A rating (% disease control): preventive spray, 0 = no control relative to controls, rating without asterisk.

For the next test, the system named is Alternaria solani. The experiment in a line: Test B: tomato early blight, preventive spray on tomato seedlings, visual disease rating. The note with it: for Test B rating (disease control) / Test B rating (% disease control): tomato early blight, 100 = 100% disease control; for Test B rating (disease control): 0 = no disease control relative to the controls; for pest or weed control at 200 µg/mL: Alternaria solani, in Solanum lycopersicum, read-out: Test B rating (disease control); for Test B rating (% disease control): preventive spray, rating without asterisk.

Test [3] relates to Blumeria graminis f. sp. tritici. The test can be described thus: Test I: wheat powdery mildew, preventive spray on wheat seedlings, visual disease rating. To be noted: 100 = 100% disease control; for Test I rating (disease control) / Test I rating (% disease control): wheat powdery mildew; for Test I rating (disease control) / pest or weed control at 200 µg/mL: 0 = no disease control relative to the controls; for pest or weed control at 200 µg/mL: Blumeria graminis, in Triticum aestivum, read-out: Test I rating (disease control), wheat powdery mildew; for Test I rating (% disease control): preventive spray, rating without asterisk.

Another test has as its system Septoria nodorum. The test can be described thus: Test E: Septoria glume blotch, preventive spray on wheat seedlings, visual disease rating. The note with it: 100 = 100% disease control; for Test E rating (disease control): Septoria glume blotch; for Test E rating (disease control) / pest or weed control at 200 µg/mL: 0 = no disease control relative to the controls; for pest or weed control at 200 µg/mL: Parastagonospora nodorum, in Triticum aestivum, read-out: Test E rating (disease control), Septoria glume blotch; for Test E rating (% disease control): Septoria glume blotch on wheat, preventive spray, rating without asterisk.

`Cc1nn(C)c(Oc2c(F)cc(C#N)cc2F)c1-c1ccc(F)cc1F` [compound 45]: in the test on Phytophthora infestans, the “Test C rating (disease control)” value came out at 0%. Besides, the “Test F rating (disease control)” value with Septoria tritici turned out to be 98%. Moreover, the “Test G rating (disease control)” value in test [1] worked out at 0%. Besides, the “Test H rating (disease control)” value in test [2] came out at 100%. The “Test A rating (disease control)” value in the test on Botrytis cinerea is reported as 100%. Further, the “Test B rating (disease control)” value in the test on Alternaria solani was determined as 99%. Further, in test [3], the “Test I rating (disease control)” value amounted to 99%. Also, the “Test E rating (disease control)” value with Septoria nodorum is 99%.

For `Cc1nn(C)c(Nc2c(F)cc(Cl)cc2F)c1-c1ccc(Cl)cc1Cl` [compound 157], in the test on Phytophthora infestans, the “Test C rating (disease control)” value was found to be 0%. The “Test F rating (disease control)” value with Septoria tritici came out at 100%. For the same compound, the “Test G rating (disease control)” value in test [1] was 27%. Also, the “Test H rating (disease control)” value in test [2] stood at 100%. The “Test A rating (disease control)” value in the test on Botrytis cinerea came to 100%. Also, in the test with Alternaria solani, the “Test B rating (disease control)” value is reported as 97%. Besides, in test [3], the “Test I rating (disease control)” value is on record as 99%. In addition, the “Test E rating (disease control)” value in the test on Septoria nodorum amounted to 87%.

With `Cc1nn(C)c(Nc2c(F)cc(Cl)cc2Cl)c1-c1ccc(F)cc1Cl` [Compound 136, 4-(2-chloro-4-fluorophenyl)-N-(2,4-dichloro-6-fluorophenyl)-1,3-dimethyl-1H-pyrazol-5-amine], the pest or weed control at 200 µg/mL in the test on Phytophthora infestans was 0%; in the test on Septoria tritici, 100%; in test [1], 100%; in test [2], 100%; in the test on Botrytis cinerea, 100%; in the test with Alternaria solani it was 100%. Moreover, the pest or weed control at 200 µg/mL (in test [3]; in the test on Septoria nodorum) was 100% each time.

As for `CCOc1cc(F)c(-c2c(C)nn(C)c2Nc2c(F)cc(Cl)cc2F)c(F)c1` [compound 199], the “Test C rating (% disease control)” value with Phytophthora infestans is 68%. In addition, the “Test F rating (% disease control)” value in the test with Septoria tritici was 100%. Also, the “Test G rating (% disease control)” value in test [1] worked out at 0%. Moreover, the “Test H rating (% disease control)” value in test [2] was 83%. Further, the “Test A rating (% disease control)” value with Botrytis cinerea turned out to be 100%. The “Test B rating (% disease control)” value with Alternaria solani amounted to 100%. In addition, in test [3], the “Test I rating (% disease control)” value is 99%. Moreover, the “Test E rating (% disease control)” value in the test with Septoria nodorum turned out to be 69%.

For `Cc1nn(C)c(Nc2c(F)cc(Cl)cc2Br)c1-c1ccc(F)cc1Cl` [compound 186], the “Test C rating (% disease control)” value in the test with Phytophthora infestans turned out to be 0%. Also, the “Test F rating (% disease control)” value in the test with Septoria tritici came out at 100%. In test [1], the “Test G rating (% disease control)” value was 100%. The “Test H rating (% disease control)” value in test [2] stood at 100%. Besides, the “Test A rating (% disease control)” value in the test with Botrytis cinerea came to 100%. Also, the “Test B rating (% disease control)” value in the test on Alternaria solani was determined as 100%. Besides, in test [3], the “Test I rating (% disease control)” value is 100%. In addition, the “Test E rating (% disease control)” value in the test with Septoria nodorum is on record as 100%.

`Cc1nn(C)c(Nc2ccc(Cl)cc2F)c1-c1c(F)cccc1F` [compound 162]: the “Test C rating (disease control)” value in the test with Phytophthora infestans was found to be 0%. The “Test F rating (disease control)” value in the test on Septoria tritici came to 100%. Also, in test [1], the “Test G rating (disease control)” value is 9%. Also, in test [2], the “Test H rating (disease control)” value came to 100%. For the same compound, the “Test A rating (disease control)” value in the test on Botrytis cinerea was found to be 100%. Besides, in the test with Alternaria solani, the “Test B rating (disease control)” value came to 88%. Also, the “Test I rating (disease control)” value in test [3] worked out at 100%. In addition, in the test on Septoria nodorum, the “Test E rating (disease control)” value worked out at 0%.

In the case of `Cc1nn(C)c(Nc2c(F)cc(F)cc2Br)c1-c1ccc(F)cc1F` [Compound 143, N-(2-bromo-4,6-difluorophenyl)-4-(2,4-difluorophenyl)-1,3-dimethyl-1H-pyrazol-5-amine], the pest or weed control at 200 µg/mL was 0% in the test on Phytophthora infestans; 100% in the test with Septoria tritici; 100% in test [1]; 100% in test [2]; 100% with Botrytis cinerea; 100% in the test with Alternaria solani. Besides, the pest or weed control at 200 µg/mL (in test [3]; in the test on Septoria nodorum) was 100% in each case.

On to `Cc1nn(C)c(Nc2c(F)cc(F)cc2Cl)c1-c1ccc(F)cc1Cl` [Compound 82, N-(2-chloro-4,6-difluorophenyl)-4-(2-chloro-4-fluorophenyl)-1,3-dimethyl-1H-pyrazol-5-amine], for which the pest or weed control at 200 µg/mL with Phytophthora infestans was 0%; in the test with Septoria tritici, 100%; in test [1], 97%; in test [2], 100%; with Botrytis cinerea it was 99%; in the test on Alternaria solani, 100%. For the same compound, the pest or weed control at 200 µg/mL (in test [3]; with Septoria nodorum) was 100% throughout.

As for `Cc1nn(C)c(Nc2ccc(F)cc2Cl)c1-c1ccc(F)cc1Cl` [Compound 47, N,4-bis(2-chloro-4-fluorophenyl)-1,3-dimethyl-1H-pyrazol-5-amine], the pest or weed control at 200 µg/mL with Phytophthora infestans came out at 0%; in the test with Septoria tritici, 96%; in test [1], 93%; in test [2], 99%; in the test with Botrytis cinerea it was 100%; in the test with Alternaria solani, 99%. Further, the pest or weed control at 200 µg/mL was determined as 100% in test [3] and 82% in the test with Septoria nodorum.

Take `Cc1nn(C)c(Nc2c(Cl)cc(Cl)cc2Cl)c1-c1ccc(F)cc1F` [compound 165]: the “Test C rating (disease control)” value in the test on Phytophthora infestans was found to be 0%. For the same compound, the “Test F rating (disease control)” value in the test on Septoria tritici is 100%. Moreover, the “Test G rating (disease control)” value in test [1] is 67%. Further, the “Test H rating (disease control)” value in test [2] came out at 99%. Moreover, in the test on Botrytis cinerea, the “Test A rating (disease control)” value was 100%. Moreover, in the test with Alternaria solani, the “Test B rating (disease control)” value is 0%. The “Test I rating (disease control)” value in test [3] was 99%. Further, the “Test E rating (disease control)” value with Septoria nodorum came to 0%.
